Data published in PubChem BioAssay AID1845202 (Molecular Pharmacology Branch, DTP, NCI, 2023).

Test system: DMS 114 tumor spheroids, viability % test/control
Assay: Anticancer human tumor DMS 114 cell line growth inhibition;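 note: spheroids exposed to compounds for 7 days before read-out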;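 for viability, T/C: luminescence used as a proxy for viable cells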
Details: spheroids with HUVEC and MSC; for IC50: curve of first compound; for viability, T/C: stronger effect = lower value; active = viability on the fitted dose curve at most 10% of control; inactive = the rest
How it was run: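 Single agents and combinations were tested on spheroids built from tumor cells plus HUVEC and hMSC, at half-log dilutions starting at or near clinical Cmax, else 10 microM; final DMSO 0.25% (v/v).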

CNCc1ccc(-c2cc(-c3nc(-c4ccc(S(=O)(=O)C(C)C)cc4)cnc3N)on2)cc1 + Cn1nnc2c(C(N)=O)ncn2c1=O
active: viability, T/C (second compound 1 µM, first compound 0.949 µM) 5.64% | viability, T/C (second compound 1 µM, first compound 3 µM) 0.18% | viability, T/C (second compound 3.16 µM, first compound 0.949 µM) 3.9% | viability, T/C (second compound 3.16 µM, first compound 3 µM) 0.24% | viability, T/C (second compound 10 µM, first compound 0.949 µM) 2.75% | viability, T/C (second compound 10 µM, first compound 3 µM) 0.19% | viability, T/C (second compound 31.6 µM, first compound 0.949 µM) 2.81% | viability, T/C (second compound 31.6 µM, first compound 3 µM) 0.23% | viability, T/C (second compound 100 µM, first compound 0.949 µM) 2.42% | viability, T/C (second compound 100 µM, first compound 3 µM) 0.69%
175 nM: IC50 (second compound 10 µM)
inactive: viability, T/C (second compound 1 µM, first compound 0.00949 µM) 103% | viability, T/C (second compound 1 µM, first compound 0.03 µM) 94.4% | viability, T/C (second compound 1 µM, first compound 0.0949 µM) 80.9% | viability, T/C (second compound 1 µM, first compound 0.3 µM) 28.3% | viability, T/C (second compound 3.16 µM, first compound 0.00949 µM) 102% | viability, T/C (second compound 3.16 µM, first compound 0.03 µM) 103% | viability, T/C (second compound 3.16 µM, first compound 0.0949 µM) 77.6% | viability, T/C (second compound 3.16 µM, first compound 0.3 µM) 27% | viability, T/C (second compound 10 µM, first compound 0.00949 µM) 101% | viability, T/C (second compound 10 µM, first compound 0.03 µM) 99.3% | viability, T/C (second compound 10 µM, first compound 0.0949 µM) 72.7% | viability, T/C (second compound 10 µM, first compound 0.3 µM) 30.2% | viability, T/C (second compound 31.6 µM, first compound 0.00949 µM) 114% | viability, T/C (second compound 31.6 µM, first compound 0.03 µM) 92% | viability, T/C (second compound 31.6 µM, first compound 0.0949 µM) 75.8% | viability, T/C (second compound 31.6 µM, first compound 0.3 µM) 22.4% | viability, T/C (second compound 100 µM, first compound 0.00949 µM) 89.7% | viability, T/C (second compound 100 µM, first compound 0.03 µM) 83.3% | viability, T/C (second compound 100 µM, first compound 0.0949 µM) 47.4% | viability, T/C (second compound 100 µM, first compound 0.3 µM) 16.1%
186 nM: IC50 (second compound 1 µM)
178 nM: IC50 (second compound 3.16 µM)
161 nM: IC50 (second compound 31.6 µM)
91.6 nM: IC50 (second compound 100 µM)

CC1COCCN1c1cc(-c2ccnn2C)c2ccnc(-c3ccn[nH]3)c2n1 (stereo not given) + CC[C@@]1(O)C(=O)OCc2c1cc1n(c2=O)Cc2cc3c(CN(C)C)c(O)ccc3nc2-1
inactive: viability, T/C (second compound 0.003 µM, first compound 0.0316 µM) 24.7% | viability, T/C (second compound 0.003 µM, first compound 0.1 µM) 20.3% | viability, T/C (second compound 0.003 µM, first compound 0.316 µM) 15.8% | viability, T/C (second compound 0.003 µM, first compound 1 µM) 11.9% | viability, T/C (second compound 0.00949 µM, first compound 0.0316 µM) 16.8% | viability, T/C (second compound 0.00949 µM, first compound 0.1 µM) 16.3% | viability, T/C (second compound 0.00949 µM, first compound 0.316 µM) 15.2% | viability, T/C (second compound 0.00949 µM, first compound 1 µM) 10.5% | viability, T/C (second compound 0.03 µM, first compound 0.0316 µM) 13.2% | viability, T/C (second compound 0.03 µM, first compound 0.1 µM) 13% | viability, T/C (second compound 0.03 µM, first compound 0.316 µM) 11.1%
< 31.6 nM: IC50 (second compound 0.003 µM) | IC50 (second compound 0.00949 µM) | IC50 (second compound 0.03 µM) | IC50 (second compound 0.0949 µM) | IC50 (second compound 0.3 µM)
active: viability, T/C (second compound 0.003 µM, first compound 3.16 µM) 8.38% | viability, T/C (second compound 0.003 µM, first compound 10 µM) 8.31% | viability, T/C (second compound 0.00949 µM, first compound 3.16 µM) 7.71% | viability, T/C (second compound 0.00949 µM, first compound 10 µM) 8.35% | viability, T/C (second compound 0.03 µM, first compound 1 µM) 8.42% | viability, T/C (second compound 0.03 µM, first compound 3.16 µM) 7.3% | viability, T/C (second compound 0.03 µM, first compound 10 µM) 7.49% | viability, T/C (second compound 0.0949 µM, first compound 0.0316 µM) 8.52% | viability, T/C (second compound 0.0949 µM, first compound 0.1 µM) 8.81% | viability, T/C (second compound 0.0949 µM, first compound 0.316 µM) 8.07% | viability, T/C (second compound 0.0949 µM, first compound 1 µM) 7.09% | viability, T/C (second compound 0.0949 µM, first compound 3.16 µM) 6.17% | viability, T/C (second compound 0.0949 µM, first compound 10 µM) 7.21% | viability, T/C (second compound 0.3 µM, first compound 0.0316 µM) 6.92% | viability, T/C (second compound 0.3 µM, first compound 0.1 µM) 7.23% | viability, T/C (second compound 0.3 µM, first compound 0.316 µM) 6.75% | viability, T/C (second compound 0.3 µM, first compound 1 µM) 6.68% | viability, T/C (second compound 0.3 µM, first compound 3.16 µM) 6.95% | viability, T/C (second compound 0.3 µM, first compound 10 µM) 7.43%
